Data reported in patent publication US20250325547A1, “ANTI-SARS-COV-2 DRUG” (KAGOSHIMA UNIVERSITY, priority 2021, published 2025).
Like-named read-outs stand apart in the source and are kept apart here.

Key:
SARS-CoV-2 (WK-521) = experiment: microbe, parasite or virus in culture; assay type: cell-based
in vitro [1] = conditions: African green monkey
SARS-CoV-2 [2] = experiment: Anti-SARS-CoV-2 RNA assay in VeroE6/TMPRSS2 cells; assay type: cell-based; conditions: Table 5, VeroE6/TMPRSS2 (RNA)
SARS-CoV-2 [3] = experiment: Anti-SARS-CoV-2 RNA assay in Vero cells; assay type: cell-based; conditions: Table 5, Vero (RNA)
in vitro [4] = conditions: human
[5] = test system: SARS-CoV-2 (WK-521 strain); experiment: microbe, parasite or virus in culture; conditions: Severe acute respiratory syndrome coronavirus 2, HEK-293T, 72 h
[6] = test system: SARS-CoV-2 (WK-521 strain); conditions: for EC50: HEK293T/ACE2 (RNA), WK-521, MOI 0.1, 3 days
[7] = Severe acute respiratory syndrome coronavirus 2, 72 h, read-out: EC50 (50% effective concentration, inhibits cell death induced by SARS-CoV-2 infection by 50%), VeroE6/TMPRSS2 cells, SARS-CoV-2 WK-521, MOI 0.01, 3 days, Tables 1-4
[8] = Severe acute respiratory syndrome coronavirus 2
[9] = read-out: EC50 (50% effective concentration, inhibits cell death induced by SARS-CoV-2 infection by 50%)
[10] = read-out: CC50 (50% toxicity concentration, reduces the number of viable cells in non-infected cells by 50%), non-infected VeroE6/TMPRSS2 cells, 3 days, Tables 1-4
[11] = Table 5, HEK293T/ACE2, lower row
[12] = read-out: EC50 (50% effective concentration, inhibits cell death induced by SARS-CoV-2 infection by 50%), VeroE6/TMPRSS2 cells, SARS-CoV-2 WK-521, MOI 0.01, 3 days, Tables 1-4

Structure (SMILES)	EC50 (SARS-CoV-2 (WK-521); [7])	CC50 at 3 days (in vitro [1])	further results
CCN(CC)Cc1cc(Nc2ncnc3ccccc23)cc(I)c1O [Compound 4]	16.9 µM	> 100 µM	–
CCN(Cc1cc(Nc2ncnc3ccccc23)cc(Cl)c1O)C1CCCCC1 [Compound 19]	–	> 100 µM	EC50 (SARS-CoV-2 (WK-521); Severe acute respiratory syndrome coronavirus 2, Table 5, VeroE6/TMPRSS2 (CPE), read-out: EC50): 3.2 µM; EC50 (SARS-CoV-2 [2]; [8]): 2.9 µM; EC50 (SARS-CoV-2 [3]; [8]): 2.9 µM; CC50 (VeroE6/TMPRSS2 cells; African green monkey, 3 days): > 100 µM; CC50 at 3 days (in vitro [4]): 36.1 µM; EC50 [5]: 0.14 µM
CC(C)N(Cc1cc(Nc2ncnc3cc(F)ccc23)cc(Cl)c1O)C(C)C [Compound 25]	2.5 µM	> 100 µM	–
CC(C)N(Cc1cc(Nc2ncnc3ccccc23)ccc1O)c1ccc(Cl)cc1 [Compound 27]	13.9 µM	> 100 µM	–
CCN(CC)Cc1cc(Nc2ncnc3cc(OC)c(OC)cc23)cc(I)c1O [Compound 5]	31.6 µM	> 100 µM	–
CCN(CC)Cc1cc(Nc2nc(N(C)C)nc3ccccc23)cc(I)c1O [Compound 6]	12.9 µM	49.9 µM	–
CC1CC(C)CN(Cc2cc(Nc3ncnc4ccccc34)cc(Cl)c2O)C1 (stereo not drawn) [Compound 24]	2.1 µM	> 100 µM	–
CC(C)N(Cc1ccncc1)Cc1cc(Nc2ncnc3ccccc23)cc(Cl)c1O [Compound 29]	10.6 µM	> 100 µM	–
CC(C)N(Cc1cc(Nc2ncnc3ccccc23)cc(Cl)c1O)C(C)C [Compound 15]	–	–	EC50 (SARS-CoV-2 (WK-521); [9]): 3.3 µM; EC50 (SARS-CoV-2 [2]): 1.9 µM; EC50 (SARS-CoV-2 [3]): 1.7 µM; CC50 (VeroE6/TMPRSS2 cells; Table 5, VeroE6/TMPRSS2 (CPE)): > 100 µM; CC50 (VeroE6/TMPRSS2 cells; [10]): > 100 µM; selectivity coefficient (CC50/EC50) [6]: > 833; EC50 [6]: 0.12 µM; CC50 (HEK293T/ACE2 cells; [11]): > 100 µM; CC50 (HEK293T/ACE2 cells; read-out: 50% toxicity concentration (CC50), HEK293T/ACE2 cells, text b80): > 100 µM
CCN(Cc1cc(Nc2ncnc3ccccc23)cc(Cl)c1O)C(C)(C)C [Compound 20]	3.9 µM	> 100 µM	–
CC(C)(C)[C@H](NC(=O)C(F)(F)F)C(=O)N1C[C@H]2[C@@H]([C@H]1C(=O)N[C@H](C#N)C[C@@H]1CCNC1=O)C2(C)C [Nirmatrelvir, reference compound]	–	–	EC50 (SARS-CoV-2 (WK-521); Severe acute respiratory syndrome coronavirus 2, VeroE6/TMPRSS2, 72 h, read-out: EC50 (50% effective concentration, inhibits cell death induced by SARS-CoV-2 infection by 50%)): 8.3 µM; CC50 (in vitro [1]): > 100 µM
CCNCc1cc(Nc2ncnc3ccccc23)cc(I)c1O [Compound 13]	44.7 µM	> 100 µM	–
C[C@@H]1CN(Cc2cc(Nc3ncnc4ccccc34)cc(Cl)c2O)[C@@H](C)CN1C (racemic) [Compound 33]	54.7 µM	> 100 µM	–
CC(C)N(Cc1cc(Nc2ncnc3ccccc23)cc(Cl)c1O[C@H]1O[C@@H](C)[C@@H](O)[C@@H](O)[C@@H]1O)C(C)C [Compound 34]	60.2 µM	> 100 µM	–
CCCN(Cc1cc(Nc2ncnc3ccccc23)cc(Cl)c1O)C(C)C [Compound 21]	11.7 µM	> 100 µM	–
CCN(CC)Cc1cc(Nc2nc(N(C)C)nc3ccccc23)cc(Cl)c1O [Compound 7]	7.2 µM	49.2 µM	–
CCN(Cc1cc(Nc2ncnc3ccccc23)cc(Cl)c1O)C(C)C [Compound 11]	–	–	EC50 (SARS-CoV-2 (WK-521); [9]): 7.6 µM; EC50 (SARS-CoV-2 [2]): 1.9 µM; EC50 (SARS-CoV-2 [3]): 5.5 µM; CC50 (VeroE6/TMPRSS2 cells; Table 5, VeroE6/TMPRSS2 (CPE)): > 100 µM; CC50 (VeroE6/TMPRSS2 cells; [10]): > 100 µM; EC50 [6]: 0.12 µM; CC50 (HEK293T/ACE2 cells; [11]): 85.4 µM
CCCN(CCC)Cc1cc(Nc2ncnc3ccccc23)cc(Cl)c1O [Compound 23]	15.3 µM	> 100 µM	–
CN(Cc1ccccc1)Cc1cc(Nc2ncnc3ccccc23)cc(I)c1O [Compound 9]	–	–	EC50 (SARS-CoV-2 (WK-521); [12]): 8 µM; CC50 (VeroE6/TMPRSS2 cells; [10]): 38.1 µM
CCN(Cc1cc(Nc2ncnc3ccccc23)cc(Cl)c1O)c1ccc(F)c(Cl)c1 [Compound 30]	10.8 µM	> 100 µM	–
CCN(Cc1cc(Nc2ncnc3ccccc23)cc(Cl)c1O)c1ccc(Cl)cc1 [Compound 28]	10 µM	> 100 µM	–
CC(C)N(Cc1cc(Nc2ncnc3ccccc23)cc(Cl)c1O)C(C)(C)C [Compound 22]	10.8 µM	> 100 µM	–
C[C@H]1C[C@H](C)CN(Cc2cc(Nc3ncnc4ccccc34)cc(Cl)c2O)C1 [Compound 31]	19.4 µM	37.5 µM	–
CCN(Cc1cc(Nc2ncnc3ccccc23)ccc1O)c1ccc(Cl)cc1 [Compound 26]	11.7 µM	> 100 µM	–
CC(C)N(Cc1cc(Nc2ncnc3ccccc23)cc(I)c1O)C(C)C [Compound 16]	–	–	EC50 (SARS-CoV-2 (WK-521); [12]): 44.6 µM; CC50 (VeroE6/TMPRSS2 cells; [10]): > 100 µM
CN1CCN(Cc2cc(Nc3ncnc4ccccc34)cc(I)c2O)CC1 [Compound 10]	–	–	EC50 (SARS-CoV-2 (WK-521); [12]): 15.5 µM; CC50 (VeroE6/TMPRSS2 cells; [10]): > 100 µM
CCN(Cc1cc(Nc2ncnc3ccccc23)cc(Cl)c1O)CC(C)(C)C [Compound 32]	20 µM	60.2 µM	–
CCN(CC)Cc1cc(Nc2ncnc3ccccc23)cc(Br)c1O [Compound 3]	23.9 µM	> 100 µM	–
CCN(C)Cc1cc(Nc2ncnc3ccccc23)cc(I)c1O [Compound 8]	–	–	EC50 (SARS-CoV-2 (WK-521); [12]): 57.6 µM; CC50 (VeroE6/TMPRSS2 cells; [10]): > 100 µM
